Test systems include MDA-MB-231; TK-10; IGROV-1; NCI-H23; M14; UACC-257; U-251; DU-145; SNB-19; SN12C; K562; 786-0; MOLT-4; LOX IMVI; SF-295; SW-620; A549; NCI-H522; RPMI-8226; SR.
Assay in all cases: NCI tumour cell line growth inhibition, 48 h

Results on eleven molecules are retold here after ChEMBL document CHEMBL1201862, “PubChem BioAssay data set” (2004).

SMILES strings stand for the structures.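 Five compound concentrations were applied to cells in 96-well plates for 48 hours; endpoints were derived by simple linear interpolation of the resulting dose-response curve. GI50: concentration for 50% inhibition of growth.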 The source made the active and inactive calls. Cut-off read from the data, not from the text of the source: active = GI50 up to about 1.1 µM and inactive = higher.

As to `CC1C2(C)OC(=N)C(C#N)(C(c3ccco3)O2)C1(C#N)C#N` (stereo not given), the GI50 with MDA-MB-231 is 19.1 µM (inactive); in the experiment with TK-10 it was 37.9 µM (inactive); with IGROV-1, 58.9 µM (inactive); with NCI-H23, 29.9 µM (inactive); in the experiment on M14, 19.1 µM (inactive); with UACC-257, 20.5 µM (inactive). The GI50 with U-251 was 24.4 µM (inactive); in the experiment on DU-145, 31 µM (inactive); with SNB-19 it was 42.5 µM (inactive); with SN12C it was 16.7 µM (inactive); with K562, 34.9 µM (inactive); with 786-0 it was 20.8 µM (inactive). Further, the GI50 is 32.2 µM (inactive) with MOLT-4; 19.2 µM (inactive) in the experiment with LOX IMVI; > 100 µM (inactive) in the experiment with SF-295; 16.4 µM (inactive) with SW-620; > 100 µM (inactive) in the experiment with A549.
`Cc1ccc(S(=O)(=O)N2C[C@](O)(c3ccccc3)[C@H]2C)cc1`: the GI50 in the experiment on NCI-H522, in the experiment with MDA-MB-231, in the experiment on TK-10, in the experiment on IGROV-1, with NCI-H23 and in the experiment on M14 was > 100 µM (inactive) each time. The GI50 in the experiment with UACC-257, in the experiment with U-251, in the experiment on DU-145, in the experiment with SNB-19, with SN12C and with 786-0 was > 100 µM (inactive) each time. The GI50 in the experiment on MOLT-4 is 44.2 µM (inactive); in the experiment with LOX IMVI it was > 100 µM (inactive); in the experiment on SF-295 it was > 100 µM (inactive); in the experiment on SW-620, > 100 µM (inactive); in the experiment with A549 it was > 100 µM (inactive).
Take `NNC(=S)N/N=C(/C(=O)Nc1ccc(Cl)c(Cl)c1)C(C1OC(=O)c2ccccc21)[N+](=O)[O-]` (stereo not given): the GI50 in the experiment with NCI-H522 was > 100 µM (inactive); in the experiment on MDA-MB-231 it was > 100 µM (inactive); in the experiment on TK-10 it was > 100 µM (inactive); in the experiment on IGROV-1 it was 54.5 µM (inactive); with NCI-H23, > 100 µM (inactive); with M14 it was > 100 µM (inactive). Besides, the GI50 in the experiment on UACC-257, in the experiment with U-251, with SN12C, in the experiment with K562, in the experiment on RPMI-8226 and with 786-0 was > 100 µM (inactive) throughout. The GI50 was > 10 µM (inactive) with SR; > 100 µM (inactive) in the experiment on MOLT-4; > 100 µM (inactive) with LOX IMVI; > 100 µM (inactive) with SF-295; > 100 µM (inactive) in the experiment with SW-620; > 100 µM (inactive) with A549.
As for `CC(=O)C1C(=O)C(=O)N(c2cccc(C)c2C)C1=O` (stereo not given), the GI50 with MDA-MB-231, in the experiment with TK-10, with IGROV-1, with NCI-H23, in the experiment on M14 and in the experiment with UACC-257 was > 100 µM (inactive) each time. Besides, the GI50 was > 100 µM (inactive) with DU-145; > 100 µM (inactive) in the experiment on SNB-19; > 100 µM (inactive) in the experiment on SN12C; > 100 µM (inactive) with 786-0; 22.8 µM (inactive) with MOLT-4; > 100 µM (inactive) with LOX IMVI. The GI50 with SF-295 and in the experiment with A549 was > 100 µM (inactive) throughout.
In the case of `CCCCCCCCCCCCCCCC(=O)OCC1CCCN2CCCCC12` (stereo not given), the GI50 in the experiment with MDA-MB-231, in the experiment on TK-10, with NCI-H23, in the experiment on M14, in the experiment on UACC-257 and with U-251 was > 100 µM (inactive) in each case. Also, the GI50 in the experiment on DU-145, with SNB-19, in the experiment on SN12C, in the experiment on K562, with RPMI-8226 and in the experiment on 786-0 was > 100 µM (inactive) in each case. The GI50 in the experiment with MOLT-4, with LOX IMVI, in the experiment with SF-295, in the experiment with SW-620 and with A549 was > 100 µM (inactive) in each case.
In the case of `COc1ccccc1-c1nc(-c2ccccc2O)n[nH]1`, the GI50 in the experiment on MDA-MB-231, in the experiment on TK-10, with NCI-H23, in the experiment with M14, in the experiment with UACC-257 and in the experiment on U-251 was > 100 µM (inactive) each time. The GI50 in the experiment on DU-145, in the experiment with SNB-19, in the experiment on SN12C, in the experiment with K562, in the experiment on RPMI-8226 and in the experiment on 786-0 was > 100 µM (inactive) each time. In addition, the GI50 in the experiment on MOLT-4 was > 100 µM (inactive); in the experiment on LOX IMVI it was 71.1 µM (inactive); in the experiment with SF-295 it was > 100 µM (inactive); in the experiment on SW-620 it was > 100 µM (inactive); in the experiment with A549, > 100 µM (inactive).
In the case of `S=c1scc(-c2ccc(Cl)cc2)n1OC1CCCC1`, the GI50 in the experiment with NCI-H522 was 16.4 µM (inactive); in the experiment with MDA-MB-231, 39.5 µM (inactive); with TK-10 it was 72.8 µM (inactive); with IGROV-1, 48.8 µM (inactive); in the experiment on NCI-H23, 16.9 µM (inactive); in the experiment on M14 it was 36.9 µM (inactive). Moreover, the GI50 in the experiment on UACC-257 is 27 µM (inactive); in the experiment on U-251 it was 15.6 µM (inactive); with DU-145, 29.4 µM (inactive); in the experiment on SNB-19, 69 µM (inactive); in the experiment with SN12C, 35.8 µM (inactive); in the experiment on K562, 16.1 µM (inactive). Further, the GI50 in the experiment on 786-0 is 37 µM (inactive); in the experiment on MOLT-4, 15.9 µM (inactive); with LOX IMVI it was 23.6 µM (inactive); with SF-295, 30.5 µM (inactive); with SW-620, 32.7 µM (inactive); in the experiment with A549, 26.2 µM (inactive).
As for `COc1cc([C@H]2c3[nH]c4ccccc4c3C[C@H]3COC(=O)N32)cc(OC)c1O`, the GI50 in the experiment on NCI-H522 is 0.015 µM (active); in the experiment with MDA-MB-231, 0.0408 µM (active); in the experiment on TK-10, 0.807 µM (active); in the experiment with IGROV-1 it was 0.0502 µM (active); in the experiment on NCI-H23 it was 0.0748 µM (active); in the experiment on M14 it was < 0.0386 µM (active). The GI50 with UACC-257 is > 100 µM (inactive); in the experiment on U-251 it was 0.0326 µM (active); in the experiment with SNB-19 it was 4.9 µM (inactive); in the experiment on SN12C it was 2.43 µM (inactive); with K562 it was 0.0153 µM (active); with RPMI-8226, 0.0404 µM (active). The GI50 was 0.145 µM (active) in the experiment with 786-0; 0.0132 µM (active) with SR; 0.0488 µM (active) with MOLT-4; < 0.01 µM (active) in the experiment on LOX IMVI; 0.0189 µM (active) with SF-295; 0.0268 µM (active) in the experiment on SW-620. For the same molecule, the GI50 in the experiment on A549 was 0.0792 µM (active).
Take `CC1CC(=O)Nc2ccc(/N=N/N(C)C)cc2N1C=O` (stereo not given): the GI50 with NCI-H522, with MDA-MB-231, with TK-10, in the experiment on IGROV-1, in the experiment on NCI-H23 and with M14 was > 100 µM (inactive) throughout. Besides, the GI50 in the experiment on UACC-257, in the experiment on U-251, in the experiment on DU-145, in the experiment on SNB-19, in the experiment on SN12C and with K562 was > 100 µM (inactive) each time. Besides, the GI50 in the experiment on RPMI-8226, in the experiment on 786-0, in the experiment with MOLT-4, with SF-295, with SW-620 and in the experiment on A549 was > 100 µM (inactive) throughout.
Take `O=C(O)c1cccc(/C=C/c2ccccc2)c1`: the GI50 in the experiment on NCI-H522, with MDA-MB-231, with TK-10, with IGROV-1, in the experiment on NCI-H23 and in the experiment on M14 was > 100 µM (inactive) each time. Further, the GI50 in the experiment with UACC-257 was > 100 µM (inactive); with U-251 it was > 100 µM (inactive); in the experiment on DU-145, 3.08 µM (inactive); with SNB-19, > 100 µM (inactive); in the experiment with SN12C, > 100 µM (inactive); in the experiment on RPMI-8226 it was > 100 µM (inactive). In addition, the GI50 in the experiment on 786-0, in the experiment with MOLT-4, in the experiment on LOX IMVI, in the experiment with SF-295, in the experiment on SW-620 and in the experiment on A549 was > 100 µM (inactive) throughout.
`CCOC(=O)c1[nH]cc(C)c1-c1cccn1-c1ccc(Cl)cc1[N+](=O)[O-]`: the GI50 in the experiment on NCI-H522 is 14 µM (inactive); in the experiment on MDA-MB-231, 8.24 µM (inactive); in the experiment with TK-10, 14.4 µM (inactive); in the experiment with IGROV-1 it was 14.7 µM (inactive); with NCI-H23, 23.9 µM (inactive); in the experiment with M14, 14.9 µM (inactive). In addition, the GI50 in the experiment with UACC-257 was 20.1 µM (inactive); in the experiment with U-251 it was 15.1 µM (inactive); with DU-145, 35.1 µM (inactive); in the experiment on SN12C it was 24.7 µM (inactive); with K562, 22.6 µM (inactive); in the experiment with 786-0 it was 18.2 µM (inactive). The GI50 is 17.1 µM (inactive) with MOLT-4; 17.5 µM (inactive) with LOX IMVI; 28.2 µM (inactive) with SF-295; 23.1 µM (inactive) in the experiment on SW-620; 23 µM (inactive) in the experiment on A549.
